# Assay results reported in article PMC7468108 (Communications Biology, 2020).
# Assay: XTT assay, cytotoxicity of the hybrid molecules towards HEK-293
# Assay type: cell-based
# Conditions: human, HEK-293 cells
# Protocol: To this end, we first tested whether the hybrid molecules carried any cytotoxicity themselves. […] No considerable toxicity (≥95% viability) was caused by the hybrid molecules towards either cell line, even at the highest concentration of 250 µM (Fig. 8).
# The SH-SY5Y and HEK-293 cell lines (2 × 10^5 cells/mL) were cultured in 96-well tissue microplates (100 µL/well) and allowed to adhere overnight at 37 °C. The conjugate molecules were dissolved in DMEM:nutrient mixture F12 (Ham’s) (1:1) (Biological Industries, Israel) at different concentrations. The negative control was prepared as medium without hybrid molecules and treated in the same manner. 100 µL of medium with or without hybrid molecules were added to each well in triplicate. Following incubation for 24 h at 37 °C, cell viability was evaluated using the 2,3-bis(2-methoxy-4-nitro-5-sulfophenyl)-2H-tetrazolium-5-carboxanilide (XTT) cell proliferation assay kit (Biological Industries, Israel) according to the manufacturer’s instructions. Briefly, 100 µL of activation reagent was added to 5 mL of XTT reagent, followed by the addition of 50 µL of activated-XTT solution to each well. After 2 h incubation at 37 °C, color intensity was measured using an ELISA microplate reader at 450 nm and 630 nm. Results are presented as mean and mean standard error. Each experiment was repeated minimum three times.
smiles,measurement,setting,value
NC(Cc1c[nH]c2ccccc12)C(=O)NC(Cc1c[nH]c2ccccc12)C(=O)O (stereo not drawn) [WW],"viability at 24 h, 0.2 µM",0.2µM,93.6%
same,"viability at 24 h, 1 µM",1 µM,98.4%
same,"viability at 24 h, 10 µM",10 µM,94.3%
same,"viability at 24 h, 50 µM",50 µM,84.5%
same,"viability at 24 h, 250 µM",250 µM,83.7%
same,"viability at 24 h, 250 µM","HEK-293, 250 µM, 24 h",~83%
